# Legend:
# human TLR7 = molecular target: T1, human TLR7 (Homo sapiens, UniProt Q9NYK1); assay: Human TLR7 agonist activity assay (hTLR7 reporter, HEK-Blue TLR7 cells, SEAP); format: cell-based; details: HEK-Blue TLR7 cells with SEAP reporter, 18 h treatment; average where assay performed multiple times
# T1 construct: host or cells: HEK-Blue TLR7 cells (engineered human embryonic kidney cells)
# T1 sequence (Q9NYK1 27-1049): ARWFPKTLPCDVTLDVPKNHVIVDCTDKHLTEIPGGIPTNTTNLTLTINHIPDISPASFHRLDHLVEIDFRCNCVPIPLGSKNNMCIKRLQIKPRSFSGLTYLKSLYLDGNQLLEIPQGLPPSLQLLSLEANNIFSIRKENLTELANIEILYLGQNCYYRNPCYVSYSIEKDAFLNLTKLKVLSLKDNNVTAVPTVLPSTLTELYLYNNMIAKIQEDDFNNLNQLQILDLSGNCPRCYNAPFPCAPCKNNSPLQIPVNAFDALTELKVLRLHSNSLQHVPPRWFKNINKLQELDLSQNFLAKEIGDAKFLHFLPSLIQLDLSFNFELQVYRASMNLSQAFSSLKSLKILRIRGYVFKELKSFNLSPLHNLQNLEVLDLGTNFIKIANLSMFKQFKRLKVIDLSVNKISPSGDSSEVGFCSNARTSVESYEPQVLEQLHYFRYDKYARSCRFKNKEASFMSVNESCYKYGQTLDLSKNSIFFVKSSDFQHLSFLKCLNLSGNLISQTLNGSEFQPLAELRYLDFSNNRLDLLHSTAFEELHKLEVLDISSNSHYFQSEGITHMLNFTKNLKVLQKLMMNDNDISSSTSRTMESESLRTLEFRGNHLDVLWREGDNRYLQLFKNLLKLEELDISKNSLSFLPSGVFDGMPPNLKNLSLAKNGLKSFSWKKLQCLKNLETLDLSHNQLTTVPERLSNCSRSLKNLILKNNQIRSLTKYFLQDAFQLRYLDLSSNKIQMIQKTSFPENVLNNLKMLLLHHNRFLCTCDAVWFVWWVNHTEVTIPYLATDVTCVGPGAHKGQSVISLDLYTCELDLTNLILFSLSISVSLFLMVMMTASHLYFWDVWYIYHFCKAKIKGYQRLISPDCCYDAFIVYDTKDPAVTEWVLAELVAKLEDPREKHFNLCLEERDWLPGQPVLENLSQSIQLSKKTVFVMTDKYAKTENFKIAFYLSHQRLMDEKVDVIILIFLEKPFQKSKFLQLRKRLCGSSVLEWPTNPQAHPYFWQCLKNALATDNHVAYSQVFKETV
# Procedure: This procedure describes a method for assaying human TLR7 (hTLR7) agonist activity of the compounds disclosed in this specification.
# HEK-Blue™ TLR7 cells were added to each well of a 384-well tissue-culture plate (15,000 cells per well) and incubated 16-18 h at 37° C., 5% CO2. Compounds (100 nl) were dispensed into wells containing the HEK-Blue™ TLR cells and the treated cells were incubated at 37° C., 5% CO2. After 18 h treatment ten microliters of freshly-prepared Quanti-Blue™ reagent (Invivogen) was added to each well, incubated for 30 min (37° C., 5% CO2) and SEAP levels measured using an Envision plate reader (OD=620 nm). The half maximal effective concentration values (EC50; compound concentration which induced a response halfway between the assay baseline and maximum) were calculated.
# CD69 = assay: Induction of CD69 in human whole blood (hWB); format: cell-based; details: 17 hrs at 37 C, CD69 surface staining, 100% set to 1 uM resiquimod, average where performed multiple times
# Procedure: The induction of Type I interferon (IFN) MX-1 genes and the B-cell activation marker CD69 are downstream events that occur upon activation of the TLR7 pathway. The following is a human whole blood assay that measures their induction in response to a TLR7 agonist.
# Heparinized human whole blood was harvested from human subjects and treated with test TLR7 agonist compounds at 1 mM. The blood was diluted with RPMI 1640 media and Echo was used to predot 10 nL per well giving a final concentration of 1 uM (10 nL in 10 uL of blood). After mixing on a shaker for 30 sec, the plates were covered and placed in a 37° C. chamber for o/n=17 hrs. Fixing/lysis buffer was prepared (5×→1× in H2O, warm at 37° C.; Cat #BD 558049) and kept the perm buffer (on ice) for later use.
# For surface markers staining (CD69): prepared surface Abs: 0.045 ul hCD14-FITC (ThermoFisher Cat #MHCD1401)+0.6 ul hCD19-ef450 (ThermoFisher Cat #48-0198-42)+1.5 ul hCD69-PE (cat #BD555531)+0.855 ul FACS buffer. Added 3 ul/well, spin1000 rpm for 1 min and mixed on shaker for 30 sec, put on ice for 30 mins. Stop stimulation after 30 min with 70 uL of prewarmed 1× fix/lysis buffer and use Feliex mate to resuspend (15 times, change tips for each plate) and incubate at 37C for 10 min.
# Centrifuge at 2000 rpm for 5 min aspirate with HCS plate washer, mix on shaker for 30 sec and then wash with 70 uL in dPBS and pelleted 2× s (2000 rpm for 5 min) and 50 ul wash in FACS buffer pelleted 1×s(2000 rpm for 5 min). Mix on shaker for 30 sec. For Intracellular markers staining (MX-1): Add 50 ul of BD Perm buffer III and mix on shaker for 30 sec. Incubate on ice for 30 min (in the dark). Wash with 50 uL of FACS buffer 2× (spin @2300 rpm×5 min after perm) followed by mixing on shaker for 30 sec. Resuspended in 20 ul of FACS buffer containing MX1 antibody ( )(4812)-Alexa 647: Novus Biologicals #NBP2-43704AF647) 20 ul FACS bf+0.8 ul hlgG+0.04 ul MX-1. Spin 1000 rpm for 1 min, mix on shaker for 30se and the samples were incubated at RT in the dark for 45 min followed by washing 2× FACS buffer (spin @2300 rpm×5 min after perm). Resuspend 20 ul (35 uL total per well) of FACS buffer and cover with foil and place in 4° C. to read the following day. Plates were read on iQuePlus. The results were loaded into toolset and IC50 curves are generated in curve master. The y-axis 100% is set to 1 uM of resiquimod.
SMILES,EC50 (human TLR7) [nM],EC50 (CD69) [nM]
"CCC[C@@H](CCO)Nc1nc(N)nc2cnn(Cc3ccc(CN4C[C@@H]5C[C@H]4CN5C(C)=O)cc3OC)c12 [Compound 101, 1-[(1S,4S)-5-({4-[(5-amino-7-{[(3S)-1-hydroxyhexan-3-yl]amino}-1H-pyrazolo[4,3-d]pyrimidin-1-yl)methyl]-3-methoxypheyl}-methyl)-2,5-diazabicyclo[2.2.1]-heptan-2-yl]ethan-1-one]",28.8,–
"CCCCNc1nc(N)nc2cnn(Cc3ccc(CN4C5CNCC4C5)cc3OC)c12 [Compound 102, N7-butyl-1-{[4-({3,6-diazabicyclo-[3.1.1]heptan-6-yl}methyl)-2-methoxyphenyl]methyl}-1H-pyrazolo-[4,3-d]pyrimidine-5,7-diamine]",89.6,–
"CCCCNc1nc(N)nc2cnn(Cc3ccc(CN4C[C@H]5CN(C)C[C@H]5C4)cc3OC)c12 [Compound 103, 1-[(4-{[(3aR,6aS)-5-methyl-octa-hydropyrrolo[3,4-c]pyrrol-2-yl]methyl}-2-methoxyphenyl)methyl]-N7-butyl-1H-pyrazolo[4,3-d]pyrimidine-5,7-diamine]",27.8,–
"CCCCNc1nc(N)nc2cnn(Cc3ccc(CN4C[C@H]5CCS(=O)(=O)[C@H]5C4)cc3OC)c12 [Compound 104, (3aR,6aR)-5-[(4-{[5-amino-7-(butyl-amino)-1H-pyrazolo[4,3-d]pyrimidin-1-yl]methyl}-3-methoxyphenyl)methyl]-hexahydro-2H-1λ6-thieno[2,3-c] pyrrole-1,1-dione]",197,–
"CCCCNc1nc(N)nc2cnn(Cc3ccc(CN4C[C@H]5C[C@@H]4CN5C)cc3OC)c12 [Compound 105, N7-butyl-1-[(2-methoxy-4-{[(1R,4R)-5-methyl-2,5-diaza-bicyclo[2.2.1]heptan-2-yl]methyl}-phenyl)methyl]-1H-pyrazolo[4,3-d]pyrimidine-5,7-diamine]",20.7,4.2
"COc1cc(CN2C[C@@H]3C[C@H]2CN3)ccc1Cn1ncc2nc(N)nc(NCc3cc(C)on3)c21 [Compound 106, 1-[(4-{[(1S,4S)-2,5-diazabicyclo-[2.2.1]heptan-2-yl]methyl}-2-methoxyphenyl)methyl]-N7-[(5-methyl-1,2-oxazol-3-yl)methyl]-1H-pyrazolo[4,3-d]pyrimidine-5,7-diamine]",234,73.6
"CCC[C@@H](CCO)Nc1nc(N)nc2cnn(Cc3ccc(CNC4[C@H]5COC[C@@H]45)cc3OC)c12 (stereo partly drawn) [Compound 107, (3S)-3-[(5-amino-1-{[2-methoxy-4-({[(1R,5S,6S)-3-oxabicyclo[3.1.0]-hexan-6-yl]amino}methyl)phenyl]-methyl}-1H-pyrazolo[4,3-d]pyrimidin-7-yl)amino]hexan-1-ol]",5.3,–
"CCC[C@@H](CCO)Nc1nc(N)nc2cnn(Cc3ccc(CN[C@H]4C[C@H]5COC[C@H]54)cc3OC)c12 [Compound 108, (3S)-3-[(5-amino-1-{[2-methoxy-4-({[(1R,5R,6S)-3-oxabicyclo-[3.2.0]heptan-6-yl]amino}methyl)phenyl]methyl}-1H-pyrazolo-[4,3-d]pyrimidin-7-yl)amino]hexan-1-ol]",4.9,–
"CCC[C@@H](CCO)Nc1nc(N)nc2cnn(Cc3ccc(CN4C[C@@H]5OCC[C@@H]54)cc3OC)c12 [Compound 109, (3S)-3-({5-amino-1-[(2-methoxy-4-{[(1S,5S)-2-oxa-6-azabicyclo-[3.2.0]heptan-6-yl]methyl}phenyl)-methyl]-1H-pyrazolo[4,3-d]pyrimidin-7-yl}amino)hexan-1-ol]",2.2,–
"CCCCNc1nc(N)nc2cnn(Cc3ccc(C(=O)N4C[C@H]5C[C@@H]4CN5C)cc3OC)c12 [Compound 110, N7-butyl-1-({2-methoxy-4-[(1R,4R)-5-methyl-2,5-diazabicyclo-[2.2.1]heptane-2-carbonyl]-phenyl}methyl)-1H-pyrazolo[4,3-d]pyrimidine-5,7-diamine]",378,2
"CCCCNc1nc(N)nc2cnn(Cc3ccc(C(=O)N4C[C@H]5CN(C)C[C@H]5C4)cc3OC)c12 [Compound 111, 1-({4-[(3aR,6aS)-5-methyl-octahydropyrrolo[3,4-c]pyrrole-2-carbonyl]-2-methoxyphenyl}-methyl)-N7-butyl-1H-pyrazolo[4,3-d]pyrimidine-5,7-diamine]",16.4,11.1
"CCC[C@@H](CCO)Nc1nc(N)nc2cnn(Cc3ccc(C(=O)N4C[C@H]5CN(C)C[C@H]5C4)cc3OC(F)F)c12 [Compound 124, (3S)-3-{[1-({4-[(3aR,6aS)-5-methyl-octahydropyrrolo[3,4-c]pyrrole-2-carbonyl]-2-(difluoromethoxy)-phenyl}methyl)-5-amino-1H-pyra-zolo[4,3-d]pyrimidin-7-yl]amino}-hexan-1-ol]",82,–
"CCC[C@@H](CCO)Nc1nc(N)nc2cnn(Cc3ccc(C(=O)N4C[C@H]5C[C@@H]4CN5C)cc3OC(F)F)c12 [Compound 125, (3S)-3-[(5-amino-1-{[2-(difluoro-methoxy)-4-[(1R,4R)-5-methyl-2,5-diazabicyclo[2.2.1]heptane-2-carbonyl]phenyl]methyl}-1H-pyrazolo[4,3-d]pyrimidin-7-yl)amino]hexan-1-ol]",301,–
"COc1cc(CNC23CC(C2)C3)ccc1Cn1ncc2nc(N)nc(NCc3cc(C)on3)c21 [Compound 126, 1-({4-[({bicyclo[1.1.1]pentan-1-yl}amino)methyl]-2-methoxy-phenyl}methyl)-N7-[(5-methyl-1,2-oxazol-3-yl)methyl]-1H-pyra-zolo[4,3-d]pyrimidine-5,7-diamine]",287,–
"COc1cc(CN2C[C@@H]3C[C@H]2CN3CCO)ccc1Cn1nc(C)c2nc(N)nc(NCc3noc(C)n3)c21 [Compound 142, 2-[(1S,4S)-5-({4-[(5-amino-3-methyl-7-{[(5-methyl-1,2,4-oxadiazol-3-yl)methyl]amino}-1H-pyrazolo-[4,3-d]pyrimidin-1-yl)methyl]-3-methoxyphenyl}methyl)-2,5-diaza-bicyclo[2.2.1]heptan-2-yl]ethan-1-ol]",1230,–
